In patent US20140172118A1, “Bioactive Compositions, Bioactive Eluting Devices and Methods of Use Thereof” (Cook Medical Technologies LLC, priority 2012, published 2014):

Assay: Ex-vivo delivery of doxazosin mesylate from coated polyurethane tubing to ureter tissue
Type: in vitro ADME
Details: 7 cm coated 6 Fr. polyurethane tubing in 9 cm porcine ureter, approximately 18 hours at 37° C., PBS pH=7.4; HPLC; compared with coating with no triacetin or DMSO; FIG. 6
Experimental: However, the increase in the amount bioactive delivered through a vessel wall may be characterized in an ex vivo assay in which the composition or implantable device is placed in a section of the appropriate vessel and incubated in a buffer solution for a fixed time. In one such assay, a device, for example, is placed in a section of porcine ureter, which is hydrated in a Phosphate Buffered Saline buffer. The ureter is incubated in a closed container for a fixed time, for example 24 hrs at 37 deg. C. […] The amount of bioactive present in the ureter and in the device is determined using, for example, an appropriate HPLC method. […]
A 7 cm section of each of the samples of tubing prepared as described in Example 1 is inserted into 9 cm of porcine ureter and incubated for approximately 18 hours at 37° C. in a screw capped glass vial hydrated with 0.25 ml of PBS (pH=7.4). […] The amount of doxazosin mesylate present in the tubing and in the ureter is determined as described in example 3.
Each of the samples from Example 2 is tested to determine the amount of doxazosin mesylate delivered to the ureter tissue. Doxazosin mesylate is extracted from each tube and ureter and the percentage that is delivered to each ureter is determined as follows. […] The amount of doxazosin mesylate in each of the ureter and the tubing is measured using HPLC.

Compound | percentage of doxazosin mesylate present in the ureter (amount delivered to ureter tissue)
CC(=O)OCC(COC(C)=O)OC(C)=O [triacetin] | increase the amount of doxazosin mesylate delivered
C[S+](C)[O-] [DMSO, dimethyl sulfoxide] | increase the amount of doxazosin mesylate delivered
